Laboratory results reported in the NIST ThermoML archive (doi:10.1016/j.jct.2005.06.017).
± gives the expanded uncertainty stated by the source.

Experiment: mn = molality of the nth substance listed, in mol/kg
Settings: 350 kPa, Liquid, Extra sensitive DSC

NCC(=O)O [2-aminoacetic acid] + O
apparent molar heat capacity [J/K/mol]
Settings	m1 = 0.015	m1 = 0.03	m1 = 0.0503	m1 = 0.0804	m1 = 0.125	m1 = 0.2493	m1 = 0.5056
278.15 K	8 ± 52	–	–	–	–	–	4.4 ± 1.9
283.15 K	25 ± 52	1	–	12.3 ± 13	10.3 ± 8.3	12.4 ± 4.2	18.7 ± 1.9
288.15 K	38 ± 52	14 ± 29	11 ± 17	25.5 ± 13	23.6 ± 8.3	25.3 ± 4.2	30.5 ± 1.8
293.15 K	50 ± 52	25 ± 29	24 ± 17	36.5 ± 12	34.1 ± 7.9	35.4 ± 4.1	40.4 ± 1.7
298.15 K	59 ± 52	33 ± 29	34.8 ± 17	45.4 ± 12	42.9 ± 7.6	44 ± 3.9	48.3 ± 1.8
303.15 K	67 ± 52	41 ± 29	43.7 ± 17	52.8 ± 12	50.1 ± 7.7	51.1 ± 4	55.2 ± 1.8
308.15 K	73 ± 52	48 ± 29	51 ± 17	59.1 ± 12	55.8 ± 7.6	57 ± 3.9	60.9 ± 1.8
313.15 K	78 ± 52	54 ± 29	57.3 ± 17	64.5 ± 12	61.3 ± 7.6	62.4 ± 4	66 ± 1.8
318.15 K	83 ± 52	59 ± 29	62.2 ± 17	68.8 ± 12	65.7 ± 7.7	66.8 ± 4	70.2 ± 1.8
323.15 K	86 ± 52	63 ± 28	66.8 ± 17	72.7 ± 12	69.3 ± 7.6	70.6 ± 4	73.9 ± 1.9
328.15 K	90 ± 52	67 ± 28	70.8 ± 17	76 ± 12	72.6 ± 7.5	73.8 ± 3.9	77.1 ± 1.9
333.15 K	92 ± 52	70 ± 28	74.5 ± 17	79 ± 12	75.4 ± 7.5	76.7 ± 3.9	80 ± 1.9
338.15 K	95 ± 52	73 ± 28	78 ± 17	81.6 ± 12	77.9 ± 7.6	79.2 ± 3.9	82.5 ± 1.9
343.15 K	97 ± 52	75 ± 28	80.6 ± 16	83.6 ± 12	80 ± 7.6	81.3 ± 3.9	84.6 ± 1.9
348.15 K	99 ± 52	77 ± 28	83.1 ± 16	85.6 ± 12	81.8 ± 7.6	83.1 ± 3.9	86.4 ± 1.9
353.15 K	101 ± 52	79 ± 28	85.3 ± 16	87.3 ± 12	83.4 ± 7.6	84.8 ± 4	88.1 ± 1.9
358.15 K	102 ± 52	81 ± 28	87.1 ± 16	88.9 ± 12	84.8 ± 7.7	86.2 ± 4	89.5 ± 1.9
363.15 K	103 ± 52	82 ± 28	88.9 ± 17	90.2 ± 12	86 ± 7.7	87.3 ± 4	90.7 ± 1.9
368.15 K	104 ± 52	83 ± 28	90.2 ± 16	91 ± 12	86.9 ± 7.7	88.3 ± 4	91.6 ± 1.9
373.15 K	104 ± 52	83 ± 28	91.1 ± 16	91.7 ± 12	87.5 ± 7.7	89 ± 4	92.4 ± 1.9
378.15 K	104 ± 52	83 ± 27	92.1 ± 16	92.3 ± 12	87.9 ± 7.6	89.4 ± 3.9	92.9 ± 1.9
383.15 K	103.9 ± 52	84 ± 28	93.3 ± 16	92.9 ± 12	88.2 ± 7.6	89.9 ± 3.9	93.3 ± 2
388.15 K	103.5 ± 52	84 ± 28	94.5 ± 16	93.1 ± 12	88.2 ± 7.6	90 ± 3.9	93.6 ± 2
393.15 K	101.4 ± 52	84 ± 28	95.6 ± 16	92.9 ± 12	87.7 ± 7.4	89.7 ± 3.9	93.6 ± 1.9
